Experimental data published in patent US20140371237A1, “p19Arf, HMGA2 and MDM2 For Use in the Diagnosis and Treatment of Aberrant Cell Growth” (University of Bremen, priority 2010, published 2014).

Key:
Type in all cases: cell-based, human
[1] = test system: p53 in tissue explants (UL and matching myometrium); test: Immunohistochemical staining for p53 of tissue explants treated with nutlin-3
Experimental: (§1) […] As controls tissue explants were incubated in medium 199 supplemented with 20% FCS without nutlin-3 for 72 h.
The immunohistochemical staining for the p53 protein (clone DO-7, DAKO, Glostrup, Denmark) was performed using a detection kit (DAKO ChemMate, DAKO, Glostrup, Denmark) and a semi-automated stainer (DAKO TechMate, DAKO, Glostrup, Denmark) according to the specifications of the manufacturer. For antigen retrieval the slides were treated in a PT Link module (DAKO, Glostrup, Denmark) using the EnVision™ FLEX Target Retrieval Solution, Low pH (DAKO, Glostrup, Denmark). The antibody dilution was 1:100.

[2] = test system: tissue explants from leiomyomas; test: qRT-PCR of p21, BAX and Ki-67 in tissue explants from leiomyomas incubated with nutlin-3
Experimental: Altogether, tissue samples of 36 patients have been investigated herein; see Table 1 in FIGS. 20A and 20B. The study was approved by the local ethics committee and prior to surgery; informed written consent was obtained from all patients. For gene expression studies samples of 52 UL from 31 patients along with matching myometrium were taken during surgery, immediately frozen in liquid nitrogen, and stored at −80° C. for RNA isolation and qRT-PCR analyses of p14^Arf. For MDM2 inhibition six tissue samples of UL from four patients as well as matching myometrium were taken during surgery and immediately transferred into sterile Hank's solution.
as §1
About 250 ng of total RNA were reverse transcribed with 200 U/μl of M-MLV reverse transcriptase (Invitrogen, Karlsruhe, Germany), RNase Out, 150 ng random hexamers and 10 mM dNTPs according to the manufacturer's instructions. RNA was denatured at 65° C. for 5 min and subsequently kept on ice for 1 min. After adding the enzyme to the RNA primer mixes, samples were incubated for 10 min at 25° C. to allow annealing of the random hexamers. Reverse transcription was performed at 37° C. for […] followed by inactivation of the reverse transcriptase at 70° C. for 15 min.
Relative quantification of transcription levels was carried out by real-time PCR analyses using the Applied Biosystems 7300 real-time PCR system (Applied Biosystems, Darmstadt, Germany). Commercially available gene expression assays (Applied Biosystems, Darmstadt, Germany) were used for quantification of mRNA of human p14^Arf (Hs00924091), BAX (Hs00180269_m1), CDKN1A (Hs 99999142), and MKI67 (Hs00606991_m1). HPRT served as endogenous control. All qRT-PCR experiments were done in triplicate.

[3] = test system: p53 in explants from an UL; test: Western blot analysis of p53 in UL explants treated with nutlin-3; details: explants of case 0700-1, 30 μM and 50 μM, 72 h
Experimental: Nutlin-3 acts as an inhibitor of MDM2 which in turn destabilizes p53. To see whether the increased expression of the senescence and apoptotic markers noted after treatment of the explants with nutlin-3 was indeed due to an elevated level of p53, explants of case 0700-1 treated with 30 μM and 50 μM nutlin-3, respectively, for 72 h were used for immunoblot analyses.
For treatment with nutlin-3 (Biomol, Hamburg, Germany) tissue samples were minced into small pieces of approximately 0.5 cm diameter and incubated in medium 199 supplemented with 20% FCS and nutlin-3 (3, 10, or 50 μM) for 72 h. As controls tissue explants were incubated in medium 199 supplemented with 20% FCS without nutlin-3 for 72 h.
Protein extracts were obtained using RIPA buffer and concentrations were determined using a BCA protein assay (Thermo Scientific, Rockford, USA) according to the manufacturer's instructions. Total protein (16 μg per lane) was separated using a SDS-polyacrylamide gel and transferred onto a nitrocellulose membrane. SeeBlue Plus2 Pre-Stained Standard (Invitrogen, Karlsruhe, Germany) was used as marker. […]

[4] = case 0687-0, 10 μM, 72 h (control 0)
[5] = case 0687-0, 30 μM, 72 h (control 0)
[6] = case 0687-1, 10 μM, 72 h (control 0)
[7] = case 0695-0, 10 μM, 6 days (control 0)
[8] = case 0695-0, 30 μM, 6 days (control 0)
[9] = case 0695-1, 10 μM, 6 days (control 0)
[10] = case 0695-1, 30 μM, 6 days (control 0)
[11] = case 0695-2, 10 μM, 6 days (control 0)
[12] = case 0695-2, 30 μM, 6 days (control 0)
[13] = case 0695-3, 10 μM, 6 days (control 0)
[14] = case 0695-3, 30 μM, 6 days (control 0)
[15] = explants from four leiomyomas, 3 μM and 10 μM, 72 h, compared to controls
[16] = six days, three UL along with matching myometrium, dose-dependent

`COc1ccc(C2=N[C@@H](c3ccc(Cl)cc3)[C@@H](c3ccc(Cl)cc3)N2C(=O)N2CCNC(=O)C2)c(OC(C)C)c1` [nutlin-3] was tested, and the “intensity (p53 staining, IHC)” value [1, 4] was 1, the “number of p53-positive cells” value [1, 4] was 2 and the “intensity (p53 staining, IHC)” value [1, 5] was 2. The “number of p53-positive cells” value [1, 5] was 257, the “intensity (p53 staining, IHC)” value [1, 6] was 2 and the “number of p53-positive cells” value [1, 6] was 398. For the same molecule, the “intensity (p53 staining, IHC)” value ([1]; case 0694-2, 10 μM, 72 h (control 0-1)) was 2, the “number of p53-positive cells” value ([1]; case 0694-2, 10 μM, 72 h (control 11)) was 393 and the “intensity (p53 staining, IHC)” value ([1]; case 0694-2, 30 μM, 72 h (control 0-1)) was 3. The “number of p53-positive cells” value ([1]; case 0694-2, 30 μM, 72 h (control 11)) was 1,277, the “intensity (p53 staining, IHC)” value [1, 7] was 1 and the “number of p53-positive cells” value [1, 7] was 11. The “intensity (p53 staining, IHC)” value [1, 8] was 1, the “number of p53-positive cells” value [1, 8] was 188 and the “intensity (p53 staining, IHC)” value [1, 9] was 0-1. The “number of p53-positive cells” value [1, 9] was 42, the “intensity (p53 staining, IHC)” value [1, 10] was 1 and the “number of p53-positive cells” value [1, 10] was 89. The “intensity (p53 staining, IHC)” value [1, 11] was 1-2, the “number of p53-positive cells” value [1, 11] was 194 and the “intensity (p53 staining, IHC)” value [1, 12] was 3. The “number of p53-positive cells” value [1, 12] was 799, the “intensity (p53 staining, IHC)” value [1, 13] was 3 and the “number of p53-positive cells” value [1, 13] was 770. For the same molecule, the “intensity (p53 staining, IHC)” value [1, 14] was 3, the “number of p53-positive cells” value [1, 14] was 1,493 and the “number of p53-positive cells, UL compared with matching myometrium” value ([1]; explants treated by nutlin-3) was “increased number of p53-positive cells”. For the same molecule, the “intensity of p53 staining (IHC)” value ([1]; explants treated by nutlin-3, concentration-dependent) was “clearly increased intensity”, the “expression of BAX” value [2, 15] was “concentration-dependent highly significant (p<0.01 or p<0.001, respectively) increases” and the “expression of Ki-67” value [2, 15] was “strongly decreased”. The “expression of p21” value [2, 15] was “concentration-dependent highly significant (p<0.01 or p<0.001, respectively) increases”, the “expression of Ki-67, one exceptional case” value ([2]; one leiomyoma explant, 3 μM, 72 h) was “an increase of Ki-67 expression was noted” and the “expression of BAX” value [2, 16] was “significant increase”. The “expression of Ki-67” value [2, 16] was “decreased expression”, the “expression of p21” value [2, 16] was “significant increase” and the “amount of p53 (immunoblot)” value [3] was “concentration-dependent increase”.
